Patent US11857529B2, “Methods for treating melanoma” (Olatec Therageutics, Inc., priority 2018, dated 2024)

Key:
[1] = tested on: B16F10 cells; assay: B16F10 melanoma Matrigel plug tumor growth in mice fed standard or OLT1177 diet; assay type: in vivo; conditions: OLT1177 diet 7.5 g/kg food (approx. 100 mg/kg/day) vs standard diet, 15 days after plug instillation; FIG. 1A
Method: (§1) C57BL/6J male mice, 6-8 weeks old (The Jackson Laboratory), were fed ad libitum with either a standard diet or a diet containing OLT1177® (dapansutrile) at a dose of 7.5 g per Kg of food for one week before subcutaneous instillation of a mixture of Matrigel and B16F10 cells (2×10^5) on the hind quarter of the mice. The dosage was approximately […] based on feed concentrations of 7.5 g/kg and food consumption of 4 g/day. These diets were continued after tumor implantation. Mice were sacrificed following 15 days from the plug instillation. Tissue and plasma were assessed after 15-day post-inoculation.

[2] = tested on: IL-6; assay: Plasma IL-6 in B16F10 tumor-bearing mice; assay type: in vivo; conditions: OLT1177 diet vs standard diet, day 15, FIG. 1B
Method: (§2) Cytokine measurements. Cytokines in supernatants and cell lysates were measured by specific ELISA according to the manufacturer's instructions (DuoSet, R&D Systems, Minneapolis, MN).
as §1

[3] = tested on: G-CSF; assay: Plasma G-CSF in B16F10 tumor-bearing mice; assay type: in vivo; conditions: OLT1177 diet vs standard diet, day 15, FIG. 1C
Method: as §2, §1

[4] = tested on: IL-22; assay: Intracellular cytokine staining for IL-22 in spleen-derived T cells of tumor-bearing mice; assay type: in vivo; conditions: OLT1177 diet vs standard diet, FIG. 1D
Method: as §1

[5] = tested on: IL-17; assay: Intracellular cytokine staining for IL-17 in spleen-derived T cells of tumor-bearing mice; assay type: in vivo; conditions: OLT1177 diet vs standard diet, FIG. 1E
Method: as §1

[6] = tested on: VEGF; assay: Plasma VEGF in tumor-bearing mice (tumor angiogenesis model); assay type: in vivo; conditions: 7 days after plug, OLT1177 diet vs standard diet, FIG. 2A
Method: (§3) Tumor Angiogenesis Model. A mixture of Matrigel and B16F10 (2×10^5) was inoculated s.c. in the interscapular area of mice fed standard or OLT1177® diet. Following 7 days from the implantation, the plugs were removed, fixed in 4% paraformaldehyde, embedded in paraffin and sectioned (4 μm). Following, the sections were de-paraffinized, hydrated and stained with hematoxylin/eosin. Separate sections were subjected to heat-induced antigen retrieval (10 mM Citrate 0.05% Tween 20-pH 6.0) at 95° C. for 15 min. The sections were then placed in a humidified slide chamber, blocked for 1 h in 10% normal donkey serum (Jackson Immunologicals) and immunostained using an antibody for Von Willebrand factor (1:100, Millipore-Sigma, Burlington, MA) overnight at 4° C. for identification of new vessel formation. Anti-rabbit horseradish peroxidase enzyme (HRP) conjugated antibody (1:100, Jackson ImmunoResearch Laboratories, West Grove, PA) were used as secondary antibody for 2 hours at room temperature. […]
We next determined the ability of dapansutrile on inhibition of angiogenesis, an acquired ability of tumor cells to sustain a blood supply to nourish the growing tumor mass. […] After seven days to allow endothelial cell infiltration, plugs were removed, and plasma VEGF levels were determined.

[7] = tested on: Von Willebrand Factor stained endothelial cells; assay: Tumor angiogenesis model: Von Willebrand Factor staining of B16F10 Matrigel plugs; assay type: in vivo, mice; conditions: 7 days after implantation, OLT1177 diet vs standard diet; FIG. 2B
Method: as §3, with “temperature. Sections were then incubated for 5-10 min with HRP substrate as directed by the manufacturer's instructions (NovaRED substrate, Vector Laboratories, Burlingame, CA). Nuclei counterstaining were achieved using Mayer's Hematoxylin counterstaining (Thermo Fisher scientific Waltham, MA).” for “temperature.”

[8] = tested on: HUVEC; assay: Angiogenesis assay (HUVEC) with melanoma conditioned media from 1205Lu cells; assay type: cell-based, human; conditions: MCM from 1205Lu cells treated with OLT1177 vs MCM, 5 hours on Matrigel; FIG. 2C
Method: Cell culture. 1205Lu human melanoma cells were cultured in RPMI. Each was supplemented with 10% FBS, 100 units/mL penicillin, 0.1 mg/ml streptomycin. Cells were maintained in a humidified 5% CO2 atmosphere at 37 C. Human metastatic melanoma cell line 1205Lu were plated in RPMI at 2.5×10^5 per well in a 24-wells plate and allowed to adhere overnight. The following day, media was replaced with fresh RPMI 10% FBS with or without OLT1177® (dapansutrile). For the induction of cytokine production IL-1α (20 ng/ml) was used. OLT1177® was added 30 minutes prior to stimulation. Supernatants were collected, in both unstimulated and stimulated conditions at 24 hours.
Angiogenesis assay (HUVEC). HUVEC cells were seeded on media with no growth factors overnight. Cells were plated onto Matrigel (Corning) coated wells at 8×10^4 cells per well in a 24 well plate. Cells were then incubated for 5 hours in the presence of HUVEC complete media (control), MCM or MCM in which 1205Lu cells were treated with OLT1177®. MCM was added without dilution. Media was then removed and matrigel was preserved in PFA4%. Pictures were taking at 40× and branching points were counted using the cross method.
The effects of dapansutrile on angiogenesis was determined in vitro using human umbilical vein endothelial cells (HUVEC). […]

[9] = tested on: B16F10-GFP cells; assay: Metastasis model: i.v. B16F10-GFP cells, GFP+ cell counts in lung and liver; assay type: in vivo, mice; conditions: 21 days after i.v. B16F10-GFP, OLT1177 diet vs standard diet
Method: Metastasis Model. Metastasis formation was determined following tail intravenous (i.v.) injection of B16F10-GFP (1×10^6) cells in mice fed standard or OLT1177® diet. Before injection, the B16F10-GFP+ cells were sorted by flow cytometry and only the top brightest 10% cells were injected. Mice were sacrificed after 21 days from the cell injection and lung and liver were isolated and prepared for histology. Previous isolation, lungs were inflated with a solution containing 0.5% low melting agarose to avoid the tissue from collapsing. The presence of GFP-positive cell in the lung and liver of tumor bearing mice were performed by fluorescent microscopy. Tissue sections were stained with Alexa Fluor conjugated WGA, for membranes detection and DAPI, for nuclear stain. Images were acquired blindly and randomly across the tissue sections to obtain 7-10 images per tissue section. GFP positive cells were counted in each image and the results reported as number of GFP+ cells/field area (full chip field).
To determine whether dapansutrile reduces tissue invasion and metastasis, B16F10-GFP labeled cells were injected intravenously in mice fed with standard or OLT1177® diets.

[10] = tested on: PMN-MDSC (CD11b+Ly6G+Ly6Clo); assay: Flow cytometry of PMN-MDSC in tumor-bearing mice; assay type: in vivo
Source text: (§4) Flow cytometry analysis was used to assess the effect of NLRP3 inhibition on the activation and expansion of MDSCs, key mediators of tumor-associated immunosuppression. Bone marrow, spleen, and lymph node-derived cells were isolated and analyzed for the two main MDSCs subtypes: polymorphonuclear MDSCs (PMN-MDSC) expressing CD11b^+Ly6G^+Ly6C^lo and monocytic MDSCs (M-MDSC) expressing CD11b^+Ly6G^−Ly6C^hi. […] In the spleen, the level of PMN-MDSCs in tumor-bearing mice was increased compared to non-tumor-bearing mice (FIG. 4B). However, in mice fed the dapansutrile diet, we observed a restoration of the PMN-MDSC population at the level observed in the non-tumor-bearing mice (FIGS. 4A-4B). […] Treatment with dapansutrile prevented the tumor-induced effect on M-MDSCs expansion, normalizing the population to the non-tumor-bearing mice level (FIGS. 4D-4F).

[11] = tested on: M-MDSC (CD11b+Ly6G−Ly6Chi); assay: Flow cytometry of M-MDSC in tumor-bearing mice; assay type: in vivo; conditions: tumor-bearing mice on dapansutrile diet, relative to non-tumor-bearing mice
Source text: as §4

[12] = healthy subjects, reference 9; cited from earlier work
[13] = target: NLRP3 inflammasome (Homo sapiens, UniProt Q96P20); conditions: reference 9; cited from earlier work
Chain of NLRP3 inflammasome (Q96P20 whole entry): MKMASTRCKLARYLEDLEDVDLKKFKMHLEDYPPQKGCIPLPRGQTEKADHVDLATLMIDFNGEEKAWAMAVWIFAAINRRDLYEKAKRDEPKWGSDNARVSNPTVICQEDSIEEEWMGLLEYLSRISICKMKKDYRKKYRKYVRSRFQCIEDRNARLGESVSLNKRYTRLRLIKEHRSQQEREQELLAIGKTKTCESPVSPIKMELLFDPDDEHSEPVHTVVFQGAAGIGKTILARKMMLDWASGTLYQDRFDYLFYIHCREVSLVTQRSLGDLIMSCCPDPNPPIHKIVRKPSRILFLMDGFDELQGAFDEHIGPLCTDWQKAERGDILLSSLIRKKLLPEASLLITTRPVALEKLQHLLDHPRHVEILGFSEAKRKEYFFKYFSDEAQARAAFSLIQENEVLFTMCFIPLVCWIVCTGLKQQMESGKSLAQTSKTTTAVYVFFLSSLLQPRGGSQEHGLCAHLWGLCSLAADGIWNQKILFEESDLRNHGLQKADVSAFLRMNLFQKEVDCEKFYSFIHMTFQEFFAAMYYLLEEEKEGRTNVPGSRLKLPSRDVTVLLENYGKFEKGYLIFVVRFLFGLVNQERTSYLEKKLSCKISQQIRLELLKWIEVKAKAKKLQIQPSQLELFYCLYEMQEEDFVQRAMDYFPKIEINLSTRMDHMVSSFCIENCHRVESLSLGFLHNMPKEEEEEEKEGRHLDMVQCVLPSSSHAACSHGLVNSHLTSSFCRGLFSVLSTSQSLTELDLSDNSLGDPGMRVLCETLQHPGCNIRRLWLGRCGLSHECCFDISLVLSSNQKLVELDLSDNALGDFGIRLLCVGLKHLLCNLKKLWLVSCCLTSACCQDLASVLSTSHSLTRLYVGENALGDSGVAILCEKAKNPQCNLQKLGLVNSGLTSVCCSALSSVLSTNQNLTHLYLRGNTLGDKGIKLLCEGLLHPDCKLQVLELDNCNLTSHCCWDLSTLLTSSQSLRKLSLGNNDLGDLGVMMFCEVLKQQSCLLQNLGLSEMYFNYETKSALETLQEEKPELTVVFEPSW

For CS(=O)(=O)CCC#N [OLT1177®, 3-methanesulfonyl-propionitrile], the tumor volume [1] was “reduced”, the “plasma levels of IL-6” value [2] was “significantly reduced” and the “plasma levels of G-CSF” value [3] was “significantly reduced”. The “IL-22 levels (ICCS, spleen-derived T cells)” value [4] was “reduced”, the “IL-17 (ICCS, spleen-derived T cells)” value [5] was “No changes” and the “circulating VEGF levels” value [6] was “significantly lower”. For the same compound, the “VWF stained endothelial cells in matrigel plugs (new vessel formation)” value [7] was “reduced”, the “HUVEC orientation (number of branching points / tubular-like structures)” value [8] was “significantly reduced” and the “reduction of number of GFP+ cells in the lungs” value ([9]; p<0.0001, FIG. 3A) was 66%. The “change in number of GFP+ cells in the liver” value ([9]; p<0.001, FIG. 3B) was −60%, the “PMN-MDSCs in lymph nodes” value ([10]; dapansutrile diet vs standard diet, FIG. 4C) was “reduction” and the “PMN-MDSC population in bone marrow” value ([10]; tumor-bearing mice on dapansutrile diet, relative to non-tumor-bearing mice, FIG. 4A) was “restoration”. For the same compound, the “PMN-MDSC population in spleen” value ([10]; tumor-bearing mice on dapansutrile diet, relative to non-tumor-bearing mice, FIG. 4B) was “restoration”, the “M-MDSC population in bone marrow” value ([11]; FIG. 4D) was “normalizing” and the “M-MDSC population in spleen” value ([11]; FIG. 4E) was “normalizing”. The “M-MDSC population in lymph nodes” value ([11]; FIG. 4F) was “normalizing”, the “safety when orally administered” value [12] was “safe” and the “inhibition of the NLRP3 inflammasome” value [13] was “selectively inhibit”.
